Laboratory results: patent publication US11161876B2, “Anti-inflammatory nanofibers” (Northwestern University, priority 2015, dated 2021)
* marks the point of attachment. C16 alkyl = CCCCCCCCCCCCCCCC*

What was measured:
[1] = system: Rat Bladder Augmentation Model; assay: Granuloma quantification (CD68 immunofluorescence) in augmented bladder tissue; type: in vivo
From the text: Granulation tissue is composed of several extracellular matrices such as collagen and a variety of immune cell types including lymphocytes, neutrophils, and especially macrophages (refs. 54-56; herein incorporated by reference in their entireties). Extravesical granulomas were found in regenerating bladder muscle and submucosa but not in the epithelial layer (urothelium) that lines the interior of the bladder wall. […] Granulation tissue was identified by a trained Pathologist (M.D.H.) utilizing immunofluorescence imaging with the macrophage marker CD68 (green). […] Images are representative examples of multiple stained tissue samples. See Table 1 for granuloma quantification. Magnification 100× (Scale bar, 200 μm).
(§1) Athymic female rats (weighing ˜200 g and 8-10 weeks old; National Cancer Institute Animal Production Program) underwent bladder augmentation (ref. 15; herein incorporated by reference in its entirety). Athymic rats were chosen for this study to solely examine the innate immune response to inflammation without influence of the adaptive immune response. In order to induce anesthesia, animals were given intraperitoneal injections of 60 mg/kg ketamine and 5 mg/kg xylazine. A second injection consisting of Buprenex (1 mg/kg) was administered subcutaneously to alleviate any pain/discomfort during and following surgical procedures. An approximate 1.5 cm midline vertical skin incision was created to expose the abdominal fascia and muscles. This was immediately followed by the separation of the wall leading to the identification of the bladder. An approximate 70% supratrigonal cystectomy was performed from anterior to posterior creating a clamshell. Immediately prior to bladder augmentation procedures, samples of the pro-inflammatory biological scaffold, small intestinal submucosa (SIS (0.5×0.5 cm); Cook Biotech.) (refs. 12,13,16; herein incorporated by reference in their entireties) were thoroughly dip-coated separately in one of the previously described AIF-PAs following gelation procedures. The sections of SIS were dip-coated for approximately 20 seconds and allowed to adhere to the SIS for an additional 30 seconds. Dip-coating procedures were performed at room temperature in air. The cystectomized bladder defect was then augmented with: 1) SIS (non-AIF-PA coated SIS; n=8 animals over both time-points); 2) AIF-PA1 coated SIS (denoted as SIS/AIF-PA1; n=11 animals over both time-points); 3) AIF-PA2 coated SIS (denoted as SIS/AIF-PA2; n=8 animals over both time-points); 4) AIF-PA3 coated SIS (denoted as SIS/AIF-PA3; n=3); 5) AIF-PA4 coated SIS (denoted as SIS/AIF-PA4; n=3 animals); 6) AIF-PA5 coated SIS (denoted as SIS/AIF-PA5; n=3 animals); and 7) AIFC-PA6 coated SIS (denoted as SIS/AIFC-PA6; n=9 animals over both time-points). The bladder was finally covered with omentum after being closed in a watertight manner utilizing 7-0 polyglactin suture. The abdominal wall was then closed in a single layer with 5-0 ethibond running suture and the skin re-approximated with 9 mm autoclips. Each group was sacrificed at 10 day and 5 week time-points.
Tissue sections comprised of SIS alone, SIS/AIF-PA1, SIS/AIF-PA2, and SIS/AIF-PA6 augmentations were subjected to immunofluorescence staining by initially undergoing antigen retrieval which consisted of 15 min of boiling in citrate buffer (0.01M citrate solution, pH 6.0 with 0.05% Tween-20) followed by cooling at room temperature for approximately 20 minutes. The antibody staining process consisted of a blocking step for 15 min in bovine serum albumin (BSA, 5 mg/ml) followed by a 40 minutes incubation at room temperature with the primary antibody. After washing with DPBS, slides were incubated for 30 min with a secondary antibody and eventually rinsed with DPBS and air dried. Slides were mounted with Vectashield (Vector Laboratories). […]

[2] = system: IL-13; assay: IL-13 expression in regenerated bladder tissue (immunofluorescence); type: in vivo, rat; conditions: for Cytokine expression (shown as percentage of cells staining positive) Anti-inflammatory IL-13: 5 weeks post-augmentation, means ± SE; for percentage of cells staining positive for IL-13: 10 days post-augmentation
Description: as §1
(§2) Tissue sections comprised of SIS alone, SIS/AIF-PA1, SIS/AIF-PA2, and SIS/AIF-PA6 augmentations were subjected to immunofluorescence staining by initially undergoing antigen retrieval which consisted of 15 min of boiling in citrate buffer (0.01M citrate solution, pH 6.0 with 0.05% Tween-20) followed by cooling at room temperature for approximately 20 minutes. The antibody staining process consisted of a blocking step for 15 min in bovine serum albumin (BSA, 5 mg/ml) followed by a 40 minutes incubation at room temperature with the primary antibody. After washing with DPBS, slides were incubated for 30 min with a secondary antibody and eventually rinsed with DPBS and air dried. Slides were mounted with Vectashield (Vector Laboratories). Primary antibodies were directed against epitopes for the inflammatory markers CD68 (macrophage) (refs. 18,19; herein incorporated by reference in their entireties) MPO (neutrophil) (ref. 20; herein incorporated by reference in its entirety) or the inflammation-related proteins IL1β, TNFα, IL-10, IL-13, CD206 (M2 macrophage) (refs. 21-25; herein incorporated by reference in their entireties) and CD86 (M1 macrophage) (ref. 26; herein incorporated by reference in its entirety). Antibodies directed against the ECM in regenerating bladder tissue (including COL4A3 and fibronectin) were also utilized. Alexa Red 555 or FITC conjugated secondary antibodies (Molecular Probes) were utilized for visualization (ref. 15; herein incorporated by reference in its entirety). […]

[3] = system: Rat Bladder Augmentation Model; assay: Blood vessel quantification in areas of bladder tissue regeneration; type: in vivo; conditions: means±SE
Description: as §1
Trichrome sample images were opened with Adobe Photoshop CS3 and were initially characterized utilizing a Nikon Eclipse 50i Microscope in addition to Spot Advanced Imaging Software. Vessel numbers were quantified utilizing the pen tool based upon n=10 images per graft in regenerated areas. Individual vessels were selected manually and subsequently quantified using the image histogram tool to acquire pixel density for each vessel. Data is represented as mean number of vessels/mm^2 (means±SE).

[4] = system: IL-10; assay: IL-10 expression in regenerated bladder tissue (immunofluorescence); type: in vivo, rat; conditions: for Cytokine expression (shown as percentage of cells staining positive) Anti-inflammatory IL-10: 5 weeks post-augmentation, means ± SE; for percentage of cells staining positive for IL-10: 10 days post-augmentation
Description: as §1, §2

Substance	Maximum Granuloma Size ([1]; 5W post-augmentation)	Mean Granuloma Size ([1]; 5W post-augmentation)	Minimum Granuloma Size ([1]; 5W post-augmentation)	Number of Granulomas ([1]; 5W post-augmentation)	Number of Large Granulomas (>0.01 mm^2) ([1]; 5W post-augmentation)	granuloma formation, in words ([1]; 5W samples)	Maximum Granuloma Size ([1]; 10D post-augmentation)	Mean Granuloma Size ([1]; 10D post-augmentation)	Minimum Granuloma Size ([1]; 10D post-augmentation)	Number of Granulomas ([1]; 10D post-augmentation)	Number of Large Granulomas (>0.01 mm^2) ([1]; 10D post-augmentation)	granuloma formation, in words ([1]; 10 day samples)	Cytokine expression (shown as percentage of cells staining positive) Anti-inflammatory IL-13 [2] [percentage]	percentage of cells staining positive for IL-13 [2] [%]	number of vessels in regenerated tissue ([3]; 5W post-augmentation) [vessels/mm^2]	number of vessels in regenerated tissue ([3]; 10D post-augmentation) [vessels/mm^2]	Cytokine expression (shown as percentage of cells staining positive) Anti-inflammatory IL-10 [4] [percentage]	percentage of cells staining positive for IL-10 [4] [%]
C16-VVVAAAEEEHDMNKVLDL (SEQ ID NO:2) ({C16 alkyl}-VVVAAAEEEHDMNKVLDL-NH2) [SIS/AIF-PA2, anti-inflammatory peptide amphiphile, tested dip-coated on small intestinal submucosa (SIS) scaffold]	4.08 ± 0.38 10^-3 mm^2	3.00 ± 0.20 10^-3 mm^2	2.09 ± 0.39 10^-3 mm^2	3.00 ± 1.00	0	diminished	11.99 ± 3.62 10^-3 mm^2	5.95 ± 1.16 10^-3 mm^2	2.65 ± 0.17 10^-3 mm^2	4.00 ± 1.00	0.67 ± 0.33	lesser degree of granuloma formation in size and frequency	32.0 ± 1.8	41.2±2.2	96.7±4.4	71.5±6.7	33.2 ± 2.3	56.2±3.4
C16-VVVAAAEEEKLMSQKMVD (SEQ ID NO:6) ({C16 alkyl}-VVVAAAEEEKLMSQKMVD-NH2) [SIS/AIFC-PA6, reference compound]	14.80 ± 2.30 10^-3 mm^2	6.10 ± 0.51 10^-3 mm^2	2.21 ± 0.30 10^-3 mm^2	7.00 ± 1.08	1.00 ± 0.41	accumulation of granulomas	110.89 ± 1.51 10^-3 mm^2	29.64 ± 0.74 10^-3 mm^2	6.12 ± 0.01 10^-3 mm^2	10.00 ± 1.00	6.00 ± 1.00	large granuloma formation	20.4 ± 2.6	28.6±3.0	53.3±4.4	37.0±2.3	21.1 ± 2.1	27.8±3.0
C16-VVVAAAEEEMQMKKVLDS (SEQ ID NO:1) ({C16 alkyl}-VVVAAAEEEMQMKKVLDS-NH2) [SIS/AIF-PA1, anti-inflammatory peptide amphiphile, tested dip-coated on small intestinal submucosa (SIS) scaffold]	1.62 ± 1.15 10^-3 mm^2	1.26 ± 0.68 10^-3 mm^2	0.97 ± 0.65 10^-3 mm^2	1.75 ± 1.03	0	diminished	23.39 ± 7.66 10^-3 mm^2	8.77 ± 1.32 10^-3 mm^2	2.67 ± 0.15 10^-3 mm^2	4.00 ± 1.00	1.33 ± 0.33	lesser degree of granuloma formation in size and frequency	26.1 ± 2.7	48.2±2.8	90.7±4.5	71.0±1.5	30.0 ± 1.6	52.0±3.1
